Source: paper PMC11278233, “The Composition of Triterpene Glycosides in the Sea Cucumber Psolus peronii: Anticancer Activity of the Glycosides against Three Human Breast Cancer Cell Lines and Quantitative Structure–Activity Relationships (QSAR)” (Marine Drugs, 2024)
Read-outs that look alike come from different tables or passages of the source.

What was measured:
MDA-MB-231 cells [1] = assay: Wound healing (scratch) assay, MDA-MB-231; assay type: cell-based, human; details: 2 μM, within 12 h, control 99.83 ± 0.08%
Method: (§1) To analyze the influence of the tested compounds on tumor cell migration, MCF-7 and MDA-MB-231 (5 × 10^5) cells attached to the plate’s plastic bottom were separated using a silicone insert from special migration plates (Culture-insert 2Well 24, ibiTreat). When the insert was removed, a gap of […] (according to the manufacturer’s data) between the cells was left. After 24 h, the cells were washed twice with PBS to remove cell debris and floating cells, treated with 1 and 2 μM of psolusosides A (2) and L (6) and placed in the real-time live cell imaging system Juli Stage (NanoEntek, Seoul, South Korea). Cells treated with the culture medium only were used as the control. The cell migration was analyzed in real time (15 min for each cycle). For the MDA-MB-231 cells, observations were carried out for 12 h (until complete healing of the wound area in the control); for MCF-7 cells, this time was 48 h. The results were processed using the program Juli^TM Stat (NanoEntek, South Korea).

[2] = tested on: human breast cancer cell line T-47D; assay: cells; assay type: cell-based; details: for IC50: Homo sapiens, T47D, 24 h, read-out: Cytotoxicity, IC50 µM T-47D; for Selectivity Index T-47D: ratio of IC50 for healthy (MCF-10A) and cancer cells
[3] = tested on: non-transformed epithelial cells of the mammary gland MCF-10A; assay: in vitro; assay type: cell-based, human
in vitro = assay type: cell-based, human; details: human
MCF-7 cells [4] = assay: Wound healing (scratch) assay, MCF-7; assay type: cell-based, human; details: 1 and 2 μM, within 48 h, control migrated by 84.60 ± 2.12%
Method: as §1

human erythrocytes = assay: Hemolytic activity; assay type: cell-based; details: Erythrocyte, 1 h at 37 °C, lysis of 50% of erythrocytes
Method: A total of 450 g of human blood (B(III) Rh+) was used to obtain erythrocytes by centrifuging it three times for 5 min with phosphate-buffered saline (PBS) (pH 7.4) at 4 °C on the centrifuge LABOFUGE 400R (Heraeus, Hanau, Germany). Ice-cold PBS (pH 7.4) was used for resuspension of the erythrocyte residue to a final optical density of 1.5 at 700 nm, which was kept on ice. Then, 20 µL of the tested compound solutions was added to 180 µL of the erythrocyte suspension in V-bottom 96-well plates and exposed for 1 h at 37 °C. The layers were separated by centrifugation at 900 g for 10 min on the laboratory centrifuge LMC-3000 (Biosan, Riga, Latvia). A total of 100 µL of the supernatant was carefully decanted and transferred into a new flat plate. The values of erythrocyte lysis were measured on a microplate photometer Multiskan FC (Thermo Fisher Scientific, Waltham, MA, USA) at λ = 570 nm as the hemoglobin concentration in the supernatant. […] All the experiments were carried out in triple repetitions; p ≤ 0.05.

[5] = tested on: triple-negative human breast cancer cell line MDA-MB-231; assay: cells; assay type: cell-based; details: for IC50: Homo sapiens; for Selectivity Index MDA-MB-231: ratio of IC50 for healthy (MCF-10A) and cancer cells
MCF-7 cells [6] = assay: Colonogenic (colony formation) assay, MCF-7; assay type: cell-based; details: Homo sapiens, MCF7, 336 h, 14 days
Method: (§2) The cancer cells (MDA-MB-231, MCF-7 and T-47D lines) were cultured on 6-well plates at a density of 1 × 10^3 per well in control media (MEM media, 10% FBS, 10,000 U/mL of penicillin and […] of streptomycin) or in media supplemented with different concentrations of the glycosides. The cells were incubated for 14 days at 37 °C in a 5% CO2 humidified incubator. Then, the colonies were fixed with methanol (25 min), stained with a 0.5% solution of crystal violet (25 min), washed with H2O and dried in air. Counting of the grown colonies was carried out using a BIO-PRINT-Cx4 Edge-Fixed Pad-Container (Vilber, Collegien, France) device and using the software Bio-Vision SOFTWARE User and service manual-v18.01 (Vilber, Collegien, France). The results are presented as % of colony inhibition in relation to the control.

[7] = tested on: human breast cancer cell line MCF-7; assay: cells; assay type: cell-based; details: for IC50: Homo sapiens, MCF7, 24 h, read-out: Cytotoxicity, IC50 µM MCF-7; for Selectivity Index MCF-7: ratio of IC50 for healthy (MCF-10A) and cancer cells
MDA-MB-231 cells [8] = assay: Colonogenic (colony formation) assay, MDA-MB-231; assay type: cell-based; details: Homo sapiens, 336 h, 14 days, read-out: inhibition of the growth of colonies
Method: as §2

T-47D cells = assay: Colonogenic (colony formation) assay, T-47D; assay type: cell-based, human; details: 1 μM, 14 days
Method: as §2

[9] = MDA-MB-231, 24 h, read-out: Cytotoxicity, IC50 µM MDA-MD-231
[10] = MDA-MB-231, MTT assay, 48 h incubation, read-out: IC50 against MDA-MB-231 cells (antiproliferative effect)
[11] = MDA-MB-231, MTT assay, 72 h incubation, read-out: IC50 against MDA-MB-231 cells (antiproliferative effect)

Compound | overgrowth of the wound area (migration) (MDA-MB-231 cells [1]) [%] | IC50 [2] [µM] | Selectivity Index T-47D ([2]; 24 h of exposition) | Selectivity Index T-47D ([2]; 48 h of exposition) | Selectivity Index T-47D ([2]; 72 h of exposition) | cytotoxicity to non-transformed MCF-10A cells (result in words) [3] | IC50 at 24 h (in vitro) [µM] | reduction of the migration of cells to the scratch area (MCF-7 cells [4]) | IC50 (human erythrocytes) [µM] | IC50 [5, 9] [µM] | IC50 [5, 10] [µM] | IC50 [5, 11] [µM] | Selectivity Index MDA-MB-231 ([5]; 24 h of exposition) | Selectivity Index MDA-MB-231 ([5]; 48 h of exposition) | Selectivity Index MDA-MB-231 ([5]; 72 h of exposition) | inhibition at 1 µM (MCF-7 cells [6]) [%] | inhibition at 2 µM (MCF-7 cells [6]) [%] | inhibition at 5 µM (MCF-7 cells [6]) [%] | IC50 [7] [µM] | Selectivity Index MCF-7 ([7]; 24 h of exposition) | also measured
C=C(C)CCC[C@]1(C)OC(=O)[C@]23CC=C4[C@@H](CC[C@H]5C(C)(C)[C@@H](O[C@@H]6OC[C@@H](O)[C@H](O)[C@H]6O[C@@H]6O[C@H](C)[C@@H](O[C@@H]7O[C@H](COS(=O)(=O)[O-])[C@@H](O)[C@H](O[C@@H]8O[C@H](COS(=O)(=O)[O-])[C@@H](O)[C@H](OC)[C@H]8O)[C@H]7O)[C@H](O)[C@H]6O)CC[C@]45C)[C@]2(C)CC(=O)[C@@H]31.[Na+].[Na+] [psolusoside A (2), psolusoside A] | 30.01 ± 0.16 | 9.52 ± 0.13 | 5.25 | 0.86 | 0.76 | not cytotoxic | > 50 | 33–42% | 1.05 ± 0.12 | 6.09 ± 0.87 | 3.87 ± 0.38 | 3.27 ± 0.27 | 8.21 | 2.18 | 2.09 | 33.8 ± 2.64 | 54.9 ± 1.92 | 96.88 ± 0.96 | 11.2 ± 0.4 | 4.47 | Selectivity Index MCF-7 ([7]; 48 h of exposition): 1.84; Selectivity Index MCF-7 ([7]; 72 h of exposition): 0.59; inhibition at 0.5 µM (MDA-MB-231 cells [8]; 0.5 μM): 40.6 ± 5.62%; inhibition at 1 µM (MDA-MB-231 cells [8]; 1 μM): 88.76 ± 0.81%
C=C(C)CCC[C@]1(C)OC(=O)[C@]23CC=C4[C@@H](CC[C@H]5C(C)(C)[C@@H](O[C@@H]6OC[C@@H](O[C@@H]7O[C@H](COS(=O)(=O)[O-])[C@@H](O)[C@H](O)[C@H]7O)[C@H](O)[C@H]6O[C@@H]6O[C@H](C)[C@@H](O[C@@H]7O[C@H](COS(=O)(=O)[O-])[C@@H](O)[C@H](O[C@@H]8O[C@H](COS(=O)(=O)[O-])[C@@H](O)[C@H](OC)[C@H]8O)[C@H]7O)[C@H](O)[C@H]6O)CC[C@]45C)[C@]2(C)CC(=O)[C@@H]31.[Na+].[Na+].[Na+] [psolusoside L (6), psolusoside L] | 6.03 ± 0.02 | 5.45 ± 0.04 | 6.07 | 1.25 | 0.91 | slightly cytotoxic | 33.08 ± 0.29 | 33–42% | 1.83 ± 0.14 | 6.39 ± 0.3 | 1.67 ± 0.16 | 1.24 ± 0.02 | 5.18 | 5.83 | 4.56 | 19.6 ± 0.24 | 89.67 ± 0.28 | 97.83 ± 0.25 | 13.7 ± 0.31 | 2.41 | growth of colonies (result in words) (T-47D cells): completely blocked; Selectivity Index MCF-7 ([7]; 48 h of exposition): 1.33; Selectivity Index MCF-7 ([7]; 72 h of exposition): 0.66; inhibition at 2 µM (MDA-MB-231 cells [8]; 2 μM): 90.4 ± 0.92%
